Values quoted from earlier work as cited in patent US20170014380A1, “Vildagliptin Formulation Process Under Inert Gas Atmosphere” (Sanovell IIac Sanayi Ve Ticaret Anonim Sirketi, priority 2014, published 2017).

SMILES: N#C[C@@H]1CCCN1C(=O)CN[C@@]12C[C@@H]3C[C@@H](CC(O)(C3)C1)C2 [Vildagliptin, (S)-{[(3-hydroxyadamantan-1-yl)amino]acetyl}pyrrolidine-2-carbonitril]
- solubility in organic polar solvents (in organic polar solvents): soluble
- solubility in water (in water): soluble
